Reference: PMC4032265 (PLoS ONE, 2014)
Read-outs that look alike come from different tables or passages of the source.

Tests used:
[1] = molecular target: β1 adrenergic receptor (Homo sapiens, UniProt P08588); assay: PDSP radioligand binding, β1; settings: read-out: % inhibition at 10 µM
[2] = molecular target: T1, M2 muscarinic acetylcholine receptor (Homo sapiens, UniProt P08172); assay: PDSP radioligand binding, M2; settings: read-out: % inhibition at 10 µM
T1 sequence (P08172 1-466): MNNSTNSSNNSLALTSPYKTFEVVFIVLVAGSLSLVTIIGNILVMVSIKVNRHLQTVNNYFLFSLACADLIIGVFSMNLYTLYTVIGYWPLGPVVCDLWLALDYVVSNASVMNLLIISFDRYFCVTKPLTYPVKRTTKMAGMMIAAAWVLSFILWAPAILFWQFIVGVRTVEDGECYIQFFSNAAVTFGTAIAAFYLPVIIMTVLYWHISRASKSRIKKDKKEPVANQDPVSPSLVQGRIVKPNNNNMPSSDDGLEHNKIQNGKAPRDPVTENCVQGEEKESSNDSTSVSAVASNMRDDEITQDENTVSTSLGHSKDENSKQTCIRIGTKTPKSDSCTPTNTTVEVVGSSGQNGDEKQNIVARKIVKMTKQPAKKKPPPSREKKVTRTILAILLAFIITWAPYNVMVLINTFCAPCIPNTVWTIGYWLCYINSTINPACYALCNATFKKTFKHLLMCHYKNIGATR

[3] = molecular target: µ opioid receptor (Homo sapiens, UniProt P35372); assay: PDSP radioligand binding, µ opioid; settings: read-out: % inhibition at 10 µM
[4] = molecular target: 5HT1D serotonergic receptor (Homo sapiens, UniProt P28221); assay: PDSP radioligand binding, 5HT1D; settings: read-out: % inhibition at 10 µM
[5] = molecular target: D3 dopaminergic receptor (Homo sapiens, UniProt P35462); assay: PDSP radioligand binding, D3; settings: read-out: % inhibition at 10 µM
[6] = molecular target: T2, σ2 receptor (Rattus norvegicus, UniProt Q5U3Y7); assay: PDSP radioligand binding, σ2; settings: for Ki: full curves, n = 2; for inhibition at 10 µM: read-out: % inhibition at 10 µM
T2 sequence (Q5U3Y7 1-176): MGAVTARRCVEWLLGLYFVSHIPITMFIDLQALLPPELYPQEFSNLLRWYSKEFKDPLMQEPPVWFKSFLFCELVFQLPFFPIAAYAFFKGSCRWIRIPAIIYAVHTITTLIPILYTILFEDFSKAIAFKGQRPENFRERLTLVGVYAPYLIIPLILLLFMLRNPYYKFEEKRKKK

[7] = molecular target: κ opioid receptor (Homo sapiens, UniProt P41145); assay: PDSP radioligand binding, κ opioid; settings: read-out: % inhibition at 10 µM
[8] = molecular target: β3 adrenergic receptor (Homo sapiens, UniProt P13945); assay: PDSP radioligand binding, β3; settings: for Ki: full concentration-response curves, n = 3-6 unless noted; for inhibition at 10 µM: read-out: % inhibition at 10 µM
[9] = molecular target: H3 histaminergic receptor (Homo sapiens, UniProt Q9Y5N1); assay: PDSP radioligand binding, H3; settings: read-out: % inhibition at 10 µM
[10] = molecular target: σ1 receptor (Cavia porcellus, UniProt Q60492); assay: PDSP radioligand binding, σ1; settings: read-out: % inhibition at 10 µM
[11] = molecular target: 5HT5A serotonergic receptor (Homo sapiens, UniProt P47898); assay: PDSP radioligand binding, 5HT5A; settings: for inhibition at 10 µM: read-out: % inhibition at 10 µM
[12] = molecular target: β2 adrenergic receptor (Homo sapiens, UniProt P07550); assay: PDSP radioligand binding, β2; settings: read-out: % inhibition at 10 µM
[13] = molecular target: T3, M4 muscarinic acetylcholine receptor (Homo sapiens, UniProt P08173); assay: PDSP radioligand binding, M4; settings: read-out: % inhibition at 10 µM
T3 sequence (P08173 1-479): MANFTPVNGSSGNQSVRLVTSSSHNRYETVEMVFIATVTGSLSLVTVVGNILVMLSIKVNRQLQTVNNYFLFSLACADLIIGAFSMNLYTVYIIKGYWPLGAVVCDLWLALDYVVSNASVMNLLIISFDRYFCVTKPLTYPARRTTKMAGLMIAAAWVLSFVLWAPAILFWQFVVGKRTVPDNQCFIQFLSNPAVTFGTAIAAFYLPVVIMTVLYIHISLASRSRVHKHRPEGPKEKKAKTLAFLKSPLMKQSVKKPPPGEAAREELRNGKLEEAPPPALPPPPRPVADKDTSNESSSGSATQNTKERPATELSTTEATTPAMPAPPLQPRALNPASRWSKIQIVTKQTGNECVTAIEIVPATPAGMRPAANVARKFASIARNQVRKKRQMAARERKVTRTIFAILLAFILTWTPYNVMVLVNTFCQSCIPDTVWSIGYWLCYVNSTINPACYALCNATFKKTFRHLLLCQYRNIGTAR

[14] = molecular target: T4, 5HT1A serotonergic receptor (Homo sapiens, UniProt P08908); assay: PDSP radioligand binding, 5HT1A; settings: for inhibition at 10 µM: read-out: % inhibition at 10 µM
T4 sequence (P08908 1-422): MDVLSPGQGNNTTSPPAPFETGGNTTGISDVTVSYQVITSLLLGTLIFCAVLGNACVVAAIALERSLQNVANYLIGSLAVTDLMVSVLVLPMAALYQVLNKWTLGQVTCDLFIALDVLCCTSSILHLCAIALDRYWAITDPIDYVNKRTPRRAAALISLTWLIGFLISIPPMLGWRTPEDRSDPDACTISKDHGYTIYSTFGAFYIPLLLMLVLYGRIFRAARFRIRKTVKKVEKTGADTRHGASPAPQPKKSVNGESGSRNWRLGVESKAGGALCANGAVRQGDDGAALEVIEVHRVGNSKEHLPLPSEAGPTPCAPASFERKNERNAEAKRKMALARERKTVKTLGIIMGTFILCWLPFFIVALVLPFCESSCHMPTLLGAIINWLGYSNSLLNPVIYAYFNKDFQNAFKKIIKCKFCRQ

[15] = molecular target: T5, α2B adrenergic receptor (Homo sapiens, UniProt P18089); assay: PDSP radioligand binding, α2B; settings: for Ki: full concentration-response curves, n = 3-6 unless noted; for inhibition at 10 µM: read-out: % inhibition at 10 µM
T5 sequence (P18089 1-450): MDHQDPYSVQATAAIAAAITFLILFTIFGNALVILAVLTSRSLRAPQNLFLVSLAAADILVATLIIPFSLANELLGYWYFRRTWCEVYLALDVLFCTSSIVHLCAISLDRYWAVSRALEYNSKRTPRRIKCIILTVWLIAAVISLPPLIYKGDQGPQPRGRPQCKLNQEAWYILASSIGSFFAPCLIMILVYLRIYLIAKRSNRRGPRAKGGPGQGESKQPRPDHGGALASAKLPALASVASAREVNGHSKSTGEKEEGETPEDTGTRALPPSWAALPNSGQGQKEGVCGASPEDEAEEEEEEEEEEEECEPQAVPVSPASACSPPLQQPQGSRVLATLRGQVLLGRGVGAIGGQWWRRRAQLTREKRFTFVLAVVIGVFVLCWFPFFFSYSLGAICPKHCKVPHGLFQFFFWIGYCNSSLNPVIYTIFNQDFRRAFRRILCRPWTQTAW

κ opioid receptor, sequence (P41145 whole entry): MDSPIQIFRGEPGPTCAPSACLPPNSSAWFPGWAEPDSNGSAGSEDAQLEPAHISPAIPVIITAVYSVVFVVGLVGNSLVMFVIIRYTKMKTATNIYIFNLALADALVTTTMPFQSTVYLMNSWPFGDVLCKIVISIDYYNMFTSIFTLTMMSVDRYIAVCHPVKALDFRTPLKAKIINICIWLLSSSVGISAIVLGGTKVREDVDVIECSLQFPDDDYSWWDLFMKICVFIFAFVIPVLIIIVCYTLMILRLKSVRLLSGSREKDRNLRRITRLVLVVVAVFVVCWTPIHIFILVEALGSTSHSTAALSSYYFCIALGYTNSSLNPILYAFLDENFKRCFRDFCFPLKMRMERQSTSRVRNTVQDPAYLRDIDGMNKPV
D3 dopaminergic receptor, sequence (P35462 whole entry): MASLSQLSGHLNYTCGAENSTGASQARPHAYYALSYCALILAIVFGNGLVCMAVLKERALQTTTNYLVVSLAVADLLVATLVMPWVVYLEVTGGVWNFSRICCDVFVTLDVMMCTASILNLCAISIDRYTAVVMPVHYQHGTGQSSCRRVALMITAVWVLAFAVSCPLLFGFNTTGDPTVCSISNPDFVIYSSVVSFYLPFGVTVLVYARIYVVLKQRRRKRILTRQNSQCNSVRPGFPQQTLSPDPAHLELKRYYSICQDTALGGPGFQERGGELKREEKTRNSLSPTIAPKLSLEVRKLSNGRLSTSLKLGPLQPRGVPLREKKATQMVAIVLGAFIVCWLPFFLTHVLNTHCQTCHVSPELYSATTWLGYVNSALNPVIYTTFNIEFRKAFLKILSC
σ1 receptor, sequence (Q60492 whole entry): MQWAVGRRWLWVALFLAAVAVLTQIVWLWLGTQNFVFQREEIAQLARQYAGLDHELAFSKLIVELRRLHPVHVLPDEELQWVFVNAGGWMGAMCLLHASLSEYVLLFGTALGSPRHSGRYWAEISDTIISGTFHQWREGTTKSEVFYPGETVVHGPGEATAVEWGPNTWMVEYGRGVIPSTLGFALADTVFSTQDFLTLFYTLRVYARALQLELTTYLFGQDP
µ opioid receptor, sequence (P35372 whole entry): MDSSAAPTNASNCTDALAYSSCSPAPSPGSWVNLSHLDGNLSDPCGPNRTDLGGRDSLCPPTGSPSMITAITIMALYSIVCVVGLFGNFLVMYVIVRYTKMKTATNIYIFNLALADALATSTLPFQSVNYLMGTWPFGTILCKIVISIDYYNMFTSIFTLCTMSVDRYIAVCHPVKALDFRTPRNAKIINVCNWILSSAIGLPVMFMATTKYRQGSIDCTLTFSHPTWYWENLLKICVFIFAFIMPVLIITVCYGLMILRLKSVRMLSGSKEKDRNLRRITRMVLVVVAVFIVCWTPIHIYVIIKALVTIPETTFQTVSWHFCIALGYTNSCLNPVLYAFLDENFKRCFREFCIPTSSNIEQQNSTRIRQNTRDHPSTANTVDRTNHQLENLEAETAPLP
β1 adrenergic receptor, sequence (P08588 whole entry, species assumed): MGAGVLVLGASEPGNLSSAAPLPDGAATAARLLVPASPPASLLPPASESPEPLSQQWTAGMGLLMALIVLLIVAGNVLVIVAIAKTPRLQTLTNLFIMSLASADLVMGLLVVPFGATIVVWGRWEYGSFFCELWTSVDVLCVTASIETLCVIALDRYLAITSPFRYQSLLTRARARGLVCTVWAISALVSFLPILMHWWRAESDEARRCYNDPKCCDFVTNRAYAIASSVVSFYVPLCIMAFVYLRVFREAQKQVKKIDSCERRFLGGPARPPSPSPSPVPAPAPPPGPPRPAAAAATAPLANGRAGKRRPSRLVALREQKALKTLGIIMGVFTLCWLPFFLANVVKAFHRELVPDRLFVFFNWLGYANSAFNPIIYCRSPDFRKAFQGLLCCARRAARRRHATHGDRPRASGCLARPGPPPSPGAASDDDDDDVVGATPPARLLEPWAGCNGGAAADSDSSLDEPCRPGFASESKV
β2 adrenergic receptor, sequence (P07550 whole entry): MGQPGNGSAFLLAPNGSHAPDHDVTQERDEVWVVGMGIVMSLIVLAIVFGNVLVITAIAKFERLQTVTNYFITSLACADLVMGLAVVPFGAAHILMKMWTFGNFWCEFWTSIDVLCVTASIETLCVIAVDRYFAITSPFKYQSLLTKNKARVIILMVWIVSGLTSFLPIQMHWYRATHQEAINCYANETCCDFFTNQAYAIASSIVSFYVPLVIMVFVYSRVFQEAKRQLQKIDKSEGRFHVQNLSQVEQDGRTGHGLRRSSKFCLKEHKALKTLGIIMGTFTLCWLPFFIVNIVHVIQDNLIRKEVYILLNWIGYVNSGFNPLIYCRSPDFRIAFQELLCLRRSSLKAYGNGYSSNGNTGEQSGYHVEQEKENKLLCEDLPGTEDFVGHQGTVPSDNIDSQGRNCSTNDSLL
H3 histaminergic receptor, sequence (Q9Y5N1 whole entry): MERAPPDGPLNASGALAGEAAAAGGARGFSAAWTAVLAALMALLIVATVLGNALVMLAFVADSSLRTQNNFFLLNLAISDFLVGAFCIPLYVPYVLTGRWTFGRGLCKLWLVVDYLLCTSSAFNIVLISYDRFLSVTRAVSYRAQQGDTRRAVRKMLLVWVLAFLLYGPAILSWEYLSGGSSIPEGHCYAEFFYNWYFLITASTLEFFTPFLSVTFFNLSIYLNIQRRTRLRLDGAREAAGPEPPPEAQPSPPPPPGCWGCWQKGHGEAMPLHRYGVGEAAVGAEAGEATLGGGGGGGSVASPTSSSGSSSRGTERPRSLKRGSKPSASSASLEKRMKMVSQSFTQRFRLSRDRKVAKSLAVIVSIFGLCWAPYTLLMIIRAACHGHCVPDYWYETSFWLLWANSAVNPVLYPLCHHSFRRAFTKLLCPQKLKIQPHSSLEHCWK
5HT1D serotonergic receptor, sequence (P28221 whole entry): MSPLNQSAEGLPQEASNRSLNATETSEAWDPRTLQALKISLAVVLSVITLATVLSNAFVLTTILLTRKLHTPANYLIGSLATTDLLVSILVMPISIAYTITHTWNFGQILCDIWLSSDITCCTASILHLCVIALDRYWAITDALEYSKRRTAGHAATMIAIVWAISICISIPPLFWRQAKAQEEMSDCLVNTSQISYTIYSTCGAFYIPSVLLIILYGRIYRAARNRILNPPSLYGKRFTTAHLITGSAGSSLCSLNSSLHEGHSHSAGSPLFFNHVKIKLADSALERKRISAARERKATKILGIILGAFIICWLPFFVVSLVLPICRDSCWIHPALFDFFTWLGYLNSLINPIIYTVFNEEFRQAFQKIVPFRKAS
5HT5A serotonergic receptor, sequence (P47898 whole entry): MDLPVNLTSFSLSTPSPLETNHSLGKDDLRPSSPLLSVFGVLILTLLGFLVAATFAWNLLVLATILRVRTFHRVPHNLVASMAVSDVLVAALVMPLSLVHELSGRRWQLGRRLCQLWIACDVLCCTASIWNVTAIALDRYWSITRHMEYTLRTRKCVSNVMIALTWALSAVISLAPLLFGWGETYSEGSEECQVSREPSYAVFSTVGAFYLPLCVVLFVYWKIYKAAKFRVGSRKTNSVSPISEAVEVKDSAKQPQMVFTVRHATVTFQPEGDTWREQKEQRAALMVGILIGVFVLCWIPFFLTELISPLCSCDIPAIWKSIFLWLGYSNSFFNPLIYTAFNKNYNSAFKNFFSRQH
β3 adrenergic receptor, sequence (P13945 whole entry): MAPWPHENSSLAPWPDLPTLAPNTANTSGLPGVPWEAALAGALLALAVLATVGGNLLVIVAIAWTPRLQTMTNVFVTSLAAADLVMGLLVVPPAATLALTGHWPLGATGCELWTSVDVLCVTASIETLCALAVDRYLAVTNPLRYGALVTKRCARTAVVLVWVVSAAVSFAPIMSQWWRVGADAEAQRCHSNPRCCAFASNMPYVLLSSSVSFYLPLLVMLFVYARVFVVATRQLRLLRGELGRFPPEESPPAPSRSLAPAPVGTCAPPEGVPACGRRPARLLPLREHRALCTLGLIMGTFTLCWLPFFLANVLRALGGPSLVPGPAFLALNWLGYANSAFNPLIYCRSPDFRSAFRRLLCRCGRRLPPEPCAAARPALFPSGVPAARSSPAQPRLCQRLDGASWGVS

Row | SMILES | Ki [6] [nM] | Ki [8] [nM] | Ki [15] [µM] | inhibition at 10 µM ([1]; single concentration 10 µM) [%] | inhibition at 10 µM ([2]; single concentration 10 µM) [%] | inhibition at 10 µM ([3]; single concentration 10 µM) [%] | inhibition at 10 µM ([4]; single concentration 10 µM) [%] | inhibition at 10 µM ([5]; single concentration 10 µM) [%] | inhibition at 10 µM ([6]; single concentration 10 µM) [%] | inhibition at 10 µM ([7]; single concentration 10 µM) [%] | inhibition at 10 µM ([8]; single concentration 10 µM) [%] | inhibition at 10 µM ([9]; single concentration 10 µM) [%] | inhibition at 10 µM ([10]; single concentration 10 µM) [%] | inhibition at 10 µM ([11]; single concentration 10 µM) [%] | inhibition at 10 µM ([12]; single concentration 10 µM) [%] | inhibition at 10 µM ([13]; single concentration 10 µM) [%] | inhibition at 10 µM ([14]; single concentration 10 µM) [%] | inhibition at 10 µM ([15]; single concentration 10 µM) [%] | also measured
1 | CNC(=O)[C@@]12C[C@@H]1[C@@H](n1cnc3c(NCc4cccc(Cl)c4)nc(C#Cc4ccc(F)c(F)c4)nc31)[C@H](O)[C@@H]2O [Compound 1] | 908 ± 294 | 1450 ± 510 | 2.86 ± 1.11 |  |  |  |  |  |  |  |  |  |  |  |  |  |  |  | inhibition at 10 µM [1]: 0%; inhibition at 10 µM [2]: 22%; inhibition at 10 µM [3]: 11%; inhibition at 10 µM [4]: 0%; inhibition at 10 µM [5]: 2%; inhibition at 10 µM [6]: 0%; inhibition at 10 µM [7]: 71%; inhibition at 10 µM [8]: 74%; inhibition at 10 µM [9]: 8%; inhibition at 10 µM [10]: 0%; inhibition at 10 µM [11]: 3%; inhibition at 10 µM [12]: 0%; inhibition at 10 µM [13]: 20%; Ki [14]: 7.62 µM; inhibition at 10 µM [14]: 26%; inhibition at 10 µM [15]: 49%
2 | CNC(=O)[C@@]12C[C@@H]1[C@@H](n1cnc3c(NCc4cccc(Cl)c4)nc(C#Cc4ccc(F)cc4)nc31)[C@H](O)[C@@H]2O [Compound 2] |  | 1560 ± 560 |  | 0 | 0 | 7 | 21 | 4 | 30 | 20 | 67 | 0 | 2 | 25 | 0 | 8 | 5 | 12 | 
3 | CNC(=O)[C@@]12C[C@@H]1[C@@H](n1cnc3c(NCc4cccc(Cl)c4)nc(C#Cc4ccccc4Cl)nc31)[C@H](O)[C@@H]2O [Compound 3] |  | 1170 ± 190 | 6.48 ± 2.94 | 2 | 0 | 23 | 10 | 7 | 42 | 19 | 57 | 0 | 33 | 29 | 0 | 8 | 6 | 8 | Ki [11]: 6.3 µM
4 | CNC(=O)[C@@]12C[C@@H]1[C@@H](n1cnc3c(NCc4cccc(Cl)c4)nc(Cl)nc31)[C@H](O)[C@@H]2O [Compound 4] |  |  |  | 0 | 14 | 1 | 31 | 22 | 0 | 6 | 0 | 0 | 2 | 21 | 2 | 30 | 29 | 21 | 
5 | CNC(=O)[C@@]12C[C@@H]1[C@@H](n1cnc3c(NC)nc(C#Cc4ccc(F)c(F)c4)nc31)[C@H](O)[C@@H]2O [Compound 5] |  | 2320 ± 390 |  | 9 | 0 | 5 | 13 | 4 | 33 | 21 | 22 | 0 | 10 | 5 | 2 | 0 | 10 | 0 | 
6 | O[C@@H]1[C@H](O)[C@@H]2C[C@@H]2[C@H]1n1cnc2c(NCc3cccc(Cl)c3)nc(C#Cc3ccc(F)c(F)c3)nc21 [Compound 6] | 2940 ± 1500 | 2460 ± 130 | 5.97 ± 1.53 | 6 | 7 | 0 | 12 | 0 | 69 | 29 | 27 | 0 | 16 | 15 | 0 | 32 | 9 | 0 | 
